The results in this text go back to ChEMBL document CHEMBL5579896, “Discovery of 2-Aryl-4-aminoquinazolin-Based LSD1 Inhibitors to Activate Immune Response in Gastric Cancer” (J Med Chem, 2024).

pIC50: −log10 of the molar value. The source made the active and inactive calls. The calls are words filed in the database; no cut-off is given here.

Series [1] is described as follows: Half-life in ICR mouse at 40 mg/kg, po measured upto 24 hrs by LC-MS/MS analysis. The format is ADME, organism-based. To be noted: in vivo.
For series [2], the system named is BGC-823. The series is described as follows: Effect on H3K4me1 methylation in LSD1 knockout human BGC-823 cells at 2 to 8 uM by Western blotting analysis. The format is functional, cell-based. To be noted: dose 2-8 µM. Background: A western blot detects proteins with antibodies after separation by electrophoresis.
Series [3] has as its target T1, Lysine-specific histone demethylase 2 (Homo sapiens, UniProt Q8NB78).
T1 sequence (Q8NB78 whole entry): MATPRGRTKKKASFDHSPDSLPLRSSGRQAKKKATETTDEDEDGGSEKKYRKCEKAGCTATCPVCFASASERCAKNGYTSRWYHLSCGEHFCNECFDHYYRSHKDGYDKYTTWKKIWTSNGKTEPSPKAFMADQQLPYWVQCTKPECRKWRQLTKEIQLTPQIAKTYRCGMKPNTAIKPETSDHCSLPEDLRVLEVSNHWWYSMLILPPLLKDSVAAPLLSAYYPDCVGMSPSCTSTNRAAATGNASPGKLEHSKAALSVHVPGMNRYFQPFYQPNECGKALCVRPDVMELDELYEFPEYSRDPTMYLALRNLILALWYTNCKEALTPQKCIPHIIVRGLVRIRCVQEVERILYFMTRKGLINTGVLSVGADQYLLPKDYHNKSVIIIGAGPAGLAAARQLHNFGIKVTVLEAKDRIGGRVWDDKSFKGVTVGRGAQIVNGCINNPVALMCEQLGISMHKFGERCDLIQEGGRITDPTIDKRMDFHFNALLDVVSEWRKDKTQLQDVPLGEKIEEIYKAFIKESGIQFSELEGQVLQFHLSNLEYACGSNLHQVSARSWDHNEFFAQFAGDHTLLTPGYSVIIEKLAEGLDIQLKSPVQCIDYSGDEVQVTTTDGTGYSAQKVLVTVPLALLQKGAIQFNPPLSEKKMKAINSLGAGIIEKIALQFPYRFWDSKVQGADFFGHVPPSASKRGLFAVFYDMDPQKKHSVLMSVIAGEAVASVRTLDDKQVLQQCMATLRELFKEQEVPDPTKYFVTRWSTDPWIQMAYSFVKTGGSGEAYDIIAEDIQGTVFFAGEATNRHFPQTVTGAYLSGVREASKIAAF
The series is described as follows: Inhibition of LSD2 (unknown origin).

For series [4], the system named is MFC. The series is described as follows: Antitumor activity against MFC cells implanted in mouse assessed as increase in infiltration of CD4+ cells at 10 to 40 mg/kg/day, po administered daily for 2 weeks and measured every 2 days by immunohistochemistry assay. The class given is functional, organism-based. The following applies: dose 10-40 mg/kg/day.
The target of series [5] is Epidermal growth factor receptor (Homo sapiens) (UniProt P00533). The series is described as follows: Inhibition of EGFR (unknown origin).
In series [6] the test system is MFC. The series is described as follows: Antitumor activity against MFC cells implanted in mouse assessed as reduction in Ki67 expression at 10 to 40 mg/kg/day, po administered daily for 2 weeks and measured every 2 days. The class given is functional, organism-based. The following applies: dose 10-40 mg/kg/day.
Series [7] deals with BGC-823. The series is described as follows: Cytotoxicity against human BGC-823 cells assessed as reduction in cell viability at 8 uM incubated for 5 days by SRB assay. The class given is toxicity, cell-based. To be noted: bgc-823, 120 h, time 5 day. A general note: In SRB staining, fixed cells bind dye roughly in proportion to their protein.
Series [8] is described as follows: Toxicity in mouse implanted with MFC assessed as spleen damage at 10 to 40 mg/kg/day, po administered daily for 2 weeks and measured every 2 days by H and E staining based assay. The format is organism-based. To be noted: in vivo, 336 h, dose 10-40 mg/kg/day.
Series [9] deals with BGC-823. Kind of series: Downregulation of PD-L1 expression in human BGC-823 cells incubated for 5 days by Western blotting analysis. The following applies: dose 2-8 µM, time 5.0 day. The class given is functional, cell-based.
Series [10] in a line: Toxicity in mouse implanted with MFC assessed as heart damage at 10 to 40 mg/kg/day, po administered daily for 2 weeks and measured every 2 days by H and E staining based assay. The class given is organism-based. The following applies: in vivo, 336 h, dose 10-40 mg/kg/day.
Series [11] addresses T2, Amine oxidase [flavin-containing] B (Homo sapiens, UniProt P27338).
T2 sequence (P27338 whole entry): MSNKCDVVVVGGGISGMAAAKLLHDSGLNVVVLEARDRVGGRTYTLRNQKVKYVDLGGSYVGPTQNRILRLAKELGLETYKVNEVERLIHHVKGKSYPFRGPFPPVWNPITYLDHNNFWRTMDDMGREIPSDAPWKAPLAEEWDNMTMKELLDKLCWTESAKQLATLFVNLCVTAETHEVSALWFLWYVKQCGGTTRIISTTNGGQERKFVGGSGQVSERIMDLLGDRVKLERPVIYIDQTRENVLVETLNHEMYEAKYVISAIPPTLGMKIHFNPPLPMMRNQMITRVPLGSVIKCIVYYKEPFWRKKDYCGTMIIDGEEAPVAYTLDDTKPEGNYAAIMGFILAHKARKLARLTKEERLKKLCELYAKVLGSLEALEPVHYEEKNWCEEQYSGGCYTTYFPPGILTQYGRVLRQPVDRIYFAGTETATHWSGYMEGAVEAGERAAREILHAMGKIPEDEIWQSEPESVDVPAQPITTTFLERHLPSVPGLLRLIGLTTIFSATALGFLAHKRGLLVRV
The series is described as follows: Inhibition of MAO-B (unknown origin).

Series [12] concerns MFC. The series is described as follows: Antitumor activity against MFC cells implanted in mouse assessed as reduction in tumor growth at 10 to 40 mg/kg/day, po administered daily for 2 weeks and measured every 2 days. The format is functional, organism-based. To be noted: dose 10-40 mg/kg/day.
Series [13] relates to MFC. Kind of series: Downregulation of PD-L1 expression in MFC cells incubated for 5 days by Western blotting analysis. The class given is functional, cell-based. The following applies: Mus musculus, dose 2-8 µM, time 5.0 day.
The target in series [14] is T3, Histone-lysine N-methyltransferase EHMT2 (Homo sapiens) (UniProt Q96KQ7).
T3 sequence (whole entry): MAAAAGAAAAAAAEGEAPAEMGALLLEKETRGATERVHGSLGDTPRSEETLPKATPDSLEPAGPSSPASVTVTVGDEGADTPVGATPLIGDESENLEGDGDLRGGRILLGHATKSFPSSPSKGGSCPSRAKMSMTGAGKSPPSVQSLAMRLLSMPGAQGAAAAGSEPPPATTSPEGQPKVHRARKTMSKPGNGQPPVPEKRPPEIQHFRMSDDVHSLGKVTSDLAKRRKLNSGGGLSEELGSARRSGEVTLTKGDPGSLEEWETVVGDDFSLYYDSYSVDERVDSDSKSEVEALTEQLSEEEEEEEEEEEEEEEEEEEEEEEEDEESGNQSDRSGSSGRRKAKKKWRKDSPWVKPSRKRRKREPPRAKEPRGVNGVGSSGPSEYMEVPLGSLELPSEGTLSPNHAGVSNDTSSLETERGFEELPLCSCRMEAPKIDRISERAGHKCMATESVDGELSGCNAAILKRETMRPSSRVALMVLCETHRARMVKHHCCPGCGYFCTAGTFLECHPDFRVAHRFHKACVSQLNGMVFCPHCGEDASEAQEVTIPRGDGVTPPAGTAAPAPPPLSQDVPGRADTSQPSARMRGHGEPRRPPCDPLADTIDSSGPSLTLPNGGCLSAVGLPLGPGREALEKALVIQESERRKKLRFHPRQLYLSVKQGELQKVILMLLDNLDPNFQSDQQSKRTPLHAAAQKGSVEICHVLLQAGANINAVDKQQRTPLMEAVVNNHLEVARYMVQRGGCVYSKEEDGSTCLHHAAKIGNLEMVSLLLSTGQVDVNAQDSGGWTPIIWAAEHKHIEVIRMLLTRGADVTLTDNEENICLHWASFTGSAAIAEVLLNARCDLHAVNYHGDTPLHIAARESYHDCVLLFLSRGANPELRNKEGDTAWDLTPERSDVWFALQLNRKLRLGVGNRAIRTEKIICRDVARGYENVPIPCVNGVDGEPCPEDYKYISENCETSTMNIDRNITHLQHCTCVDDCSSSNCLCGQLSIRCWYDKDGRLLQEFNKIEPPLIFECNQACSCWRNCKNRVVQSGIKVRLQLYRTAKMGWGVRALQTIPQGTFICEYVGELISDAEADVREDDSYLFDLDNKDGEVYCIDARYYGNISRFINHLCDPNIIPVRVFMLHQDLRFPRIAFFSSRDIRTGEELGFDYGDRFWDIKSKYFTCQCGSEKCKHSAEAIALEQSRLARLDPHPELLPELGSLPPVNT
The series is described as follows: Inhibition of G9a (unknown origin).

Series [15] relates to MFC. The series is described as follows: Antitumor activity against MFC cells implanted in mouse assessed as increase in infiltration of CD8+ cells at 10 to 40 mg/kg/day, po administered daily for 2 weeks and measured every 2 days by immunohistochemistry assay. The class given is functional, organism-based. The following applies: dose 10-40 mg/kg/day.
Series [16] has as its system MFC. The series is described as follows: Antitumor activity against MFC cells implanted in mouse assessed as reduction in tumor weight at 10 to 40 mg/kg/day, po administered daily for 2 weeks and measured every 2 days. The class given is functional, organism-based. To be noted: dose 10-40 mg/kg/day.
Series [17] has as its target T4, MAO-B (Amine oxidase [flavin-containing] B) (Homo sapiens, UniProt P27338).
T4 sequence (P27338 whole entry): T2 sequence (P27338 whole entry)
Kind of series: Inhibition of MAO-B (unknown origin) at 10 uM relative to control.

Series [18] in a line: AUC in ICR mouse at 40 mg/kg, po measured upto 24 hrs by LC-MS/MS analysis. The following applies: in vivo. The format is ADME, organism-based.
Series [19] concerns BGC-823. Kind of series: Effect on H3K4me2 methylation in LSD1 knockout human BGC-823 cells at 2 to 8 uM by Western blotting analysis. The class given is functional, cell-based. The following applies: dose 2-8 µM.

As a reminder, the half-life is how long it takes for the measured level to halve. Usually pIC50 stands for the IC50 on a negative log10 scale, so that one unit is a factor of ten. As a reminder, the inhibition is the percentage by which the read-out fell short of the control. What is called AUC is the area under the concentration-time curve, a measure of exposure.

Epidermal growth factor receptor (Homo sapiens), sequence (P00533 whole entry): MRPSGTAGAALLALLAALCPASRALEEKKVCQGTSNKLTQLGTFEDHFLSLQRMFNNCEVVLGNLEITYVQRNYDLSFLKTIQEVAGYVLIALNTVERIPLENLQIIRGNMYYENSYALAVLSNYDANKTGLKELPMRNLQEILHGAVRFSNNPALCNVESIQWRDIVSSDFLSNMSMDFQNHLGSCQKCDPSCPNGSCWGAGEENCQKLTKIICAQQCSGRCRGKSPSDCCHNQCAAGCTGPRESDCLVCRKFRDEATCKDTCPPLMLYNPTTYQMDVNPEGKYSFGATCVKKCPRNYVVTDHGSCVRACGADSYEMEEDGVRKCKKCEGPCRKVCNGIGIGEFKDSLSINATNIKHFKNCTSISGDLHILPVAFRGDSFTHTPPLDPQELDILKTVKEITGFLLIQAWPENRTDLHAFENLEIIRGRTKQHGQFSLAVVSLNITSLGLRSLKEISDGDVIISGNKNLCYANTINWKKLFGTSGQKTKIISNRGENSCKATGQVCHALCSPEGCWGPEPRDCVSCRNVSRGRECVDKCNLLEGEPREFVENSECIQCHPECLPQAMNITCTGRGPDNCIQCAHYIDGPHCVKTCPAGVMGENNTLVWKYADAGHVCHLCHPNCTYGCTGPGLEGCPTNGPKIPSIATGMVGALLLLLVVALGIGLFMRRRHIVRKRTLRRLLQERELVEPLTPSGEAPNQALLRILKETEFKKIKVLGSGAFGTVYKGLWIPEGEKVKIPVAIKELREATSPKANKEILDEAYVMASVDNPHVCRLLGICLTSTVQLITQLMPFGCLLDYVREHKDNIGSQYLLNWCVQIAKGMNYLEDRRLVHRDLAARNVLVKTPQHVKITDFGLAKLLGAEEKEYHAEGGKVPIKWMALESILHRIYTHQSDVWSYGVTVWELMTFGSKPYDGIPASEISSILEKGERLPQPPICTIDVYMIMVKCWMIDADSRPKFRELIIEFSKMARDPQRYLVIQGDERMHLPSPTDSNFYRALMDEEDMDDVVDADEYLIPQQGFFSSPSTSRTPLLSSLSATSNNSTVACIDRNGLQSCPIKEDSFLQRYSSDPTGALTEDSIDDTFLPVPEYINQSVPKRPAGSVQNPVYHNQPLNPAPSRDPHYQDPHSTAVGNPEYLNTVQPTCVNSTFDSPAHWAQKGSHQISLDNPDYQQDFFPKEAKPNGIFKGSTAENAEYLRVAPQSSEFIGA

As to `CCN(CC)c1ccc(Nc2nc(-c3ccc(S(C)(=O)=O)cc3)nc3ccccc23)cc1`, the half-life in series [1] was 1.22 h. Also, the outcome with BGC-823 [2] and in the series with BGC-823 [19] was inactive. The negative-log IC50 (pIC50) in series [3] and in series [11] was < 5.00 throughout. For the same compound, the outcome in the series on MFC [4], in the series on MFC [6], in the series with MFC [12], in the series on MFC [15] and in the series with MFC [16] was Active. The inhibition result in [5] and in [14] was “inactive” each time. Also, the Activity result in the series on BGC-823 [7] was “Non-Toxic”; in series [8], “Non-Toxic”; with BGC-823 [9], “Dose-Dependent Effect”; in series [10], “Non-Toxic”; in the series on MFC [13] it was “Dose-Dependent Effect”. In [17], the inhibition at 10 µM was < 10%. Moreover, the AUC at 24 h in series [18] was found to be 2.25 µg·h/mL.
